Source: patent US3963716A, “Novel 1-phthalazone derivative, a process for its preparation and a pharmaceutical composition containing it” (priority 1973, dated 1976)
Read-outs that look alike come from different tables or passages of the source.

Key:
[1] = tested on: human platelet; test: human platelet aggregation in vitro induced by ADP or adrenaline (CPRP); format: cell-based; conditions: 200 s
Method: Samples of human CPRP (citrated platelet-rich plasma) were incubated at 37°C. for 200 sec. with 1/10 volume of saline containing various amount of the compound to be tested. To the mixture was then added ADP (3μMole) or adrenaline (1 μg/ml). Intensity of primary and secondary aggregation was measured with a platelet aggregation meter (Chrono-Log, Model 300).
Intensity of ADP- or adrenaline-induced aggregation of each sample, which was incubated with the compound, was compared with that of the same sample incubated with saline. The ratio was expressed as a percentage of intensity of aggregation with the compound against one with saline.
The intensity of primary and secondary aggregation of platelets was measured by the procedure described in H. Yamazaki, T. Sano, et al.; title[Platelet Functions in Thromboembolic Disorders] Thrombosis et Diatheses Haemorrhagica "in press" and the references cited therein.

[2] = tested on: aorta of rabbits; test: prevention of cholesterol-induced atherosclerosis in rabbits (surface covered by fatty streaks in the aorta); format: in vivo, albino rabbits; conditions: rabbit aorta; oral 1 mg/Kg daily, 15 weeks, diet with 1% cholesterol; placebo 54.6±5.4
Method: Forty healthy albino rabbits of the same age and of the same family were used in the experiment.
After the completion of the regimen, the rabbits were killed and the percentage of the surface covered by fatty streaks was measured in each aorta of the rabbits stained with Sundan IV. The percent of the surface covered by fatty streaks in the aorta of the rabbits was measured by the procedure described in T. Shimamoto, F. Numano, T. Fujita; American Heart Journal, 71, 2216 (1966).

[3] = tested on: spontaneously hypertensive rats; test: hypotensive effect in spontaneously hypertensive rats; format: in vivo, rat; conditions: for hypotensive effect (in words): intraperitoneal or oral doses up to 50 mg/Kg
Description: The present compounds have a unique hypotensive effect in spontaneously hypertensive rats. The spontaneously hypertensive rats, abbreviated as SH rats, are produced by selective breeding of spontaneously hypertensive rats and continuous inbreeding with hypertensive mates, and they might be acknowledged as genetically hypertensive. It is believed that SH rats have a striking similarity to human essential hypertension and their reactions can be extrapolated to this morbid condition.
In the blood pressure test, SH rats weighing 210 - 250 g and aged 13-15 weeks were used, and the compounds tested were administered intraperitoneally. Each value in the Table V hows an average figure for three rats.

[4] = in vivo; conditions: mouse, oral, mice
[5] = tested on: aortic wall of rabbits; test: regression of preestablished cholesterol-induced atherosclerosis in rabbits (cholesterol content of the aortic wall); format: in vivo, albino rabbits; conditions: oral 1 mg/Kg daily, head prints (μg)
Description: For the regressive test, 50 healthy albino rabbits were fed with a diet containing 1% cholesterol for 15 weeks. Five rabbits were killed at the 15th week of the cholesterol feeding and the remaining 45 rabbits were divided into 3 groups. […] Five each of the rabbits of the 3 groups were killed after 6, 10 and 20 weeks, respectively. The total contents of cholesterol in the aortic wall were estimated by gas chromatography, the results of which are shown in the Table III.
1. The total content of cholesterol in the aortic wall was measured by the procedure described in T. Shimamoto, F. Numano, T. Fujita et al.; Asian med. Journal, 8. 12 (1965) 2. […] 3. The total chloesterol contents indicated in Table III were shown in μg per one mg of the dried aortic wall. The value in the Table is the average figure for 5 rabbits

[6] = tested on: cyclic AMP phosphodiesterase; test: inhibition of cyclic AMP phosphodiesterase, human platelet; format: biochemical; conditions: 50% inhibition of cyclic AMP phosphodiesterase; read-out: I50, Platelet (human)
Method: (§1) The procedure of the experiment was carried out in accordance with the method described in H. Hidaka and M. Shibuya: title "A new assay of cyclic nucleotide phosphodiesterase and its application to humans", Biochemical Medicine, (in press).

[7] = target: cyclic AMP phosphodiesterase; test: inhibition of cyclic AMP phosphodiesterase, aortic wall intima (rabbit); format: biochemical; conditions: 50% inhibition of cyclic AMP phosphodiesterase; read-out: I50, Aortic Wall, Intima (rabbit)
Method: as §1

[8] = target: cyclic AMP phosphodiesterase; test: inhibition of cyclic AMP phosphodiesterase, aortic wall media (rabbit); format: biochemical; conditions: 50% inhibition of cyclic AMP phosphodiesterase; read-out: I50, Aortic Wall, Media (rabbit)
Method: as §1

[9] = 40 μg/ml, intensity with compound vs saline, read-out: Inhibition ratio, primary aggregation, ADP 3 μM
[10] = 40 μg/ml, intensity with compound vs saline, read-out: Inhibition ratio, secondary aggregation, ADP 3 μM
[11] = 80 μg/ml, intensity with compound vs saline, read-out: Inhibition ratio, primary aggregation, ADP 3 μM
[12] = 80 μg/ml, intensity with compound vs saline, read-out: Inhibition ratio, secondary aggregation, ADP 3 μM
[13] = read-out: Inhibition ratio, primary aggregation, Adrenaline 1μg/ml
[14] = read-out: Inhibition ratio, secondary aggregation, Adrenaline 1μg/ml
[15] = 50 mg/Kg intraperitoneally, 1 hr
[16] = 50 mg/Kg intraperitoneally, 3 hr
[17] = 50 mg/Kg intraperitoneally, 6 hr
[18] = 50 mg/Kg intraperitoneally, 24 hr
[19] = 50 mg/Kg intraperitoneally, 48 hr
[20] = 50 mg/Kg intraperitoneally, before dosing
[21] = 5 μg/ml, intensity with compound vs saline, read-out: Inhibition ratio, primary aggregation, ADP 3 μM
[22] = 5 μg/ml, intensity with compound vs saline, read-out: Inhibition ratio, secondary aggregation, ADP 3 μM
[23] = 10 μg/ml, intensity with compound vs saline, read-out: Inhibition ratio, primary aggregation, ADP 3 μM
[24] = 10 μg/ml, intensity with compound vs saline, read-out: Inhibition ratio, secondary aggregation, ADP 3 μM
[25] = 20 μg/ml, intensity with compound vs saline, read-out: Inhibition ratio, primary aggregation, ADP 3 μM
[26] = 20 μg/ml, intensity with compound vs saline, read-out: Inhibition ratio, secondary aggregation, ADP 3 μM
[27] = 3.1 mg/Kg intraperitoneally, 1 hr
[28] = 3.1 mg/Kg intraperitoneally, 3 hr
[29] = 3.1 mg/Kg intraperitoneally, 6 hr
[30] = 3.1 mg/Kg intraperitoneally, 24 hr
[31] = 3.1 mg/Kg intraperitoneally, 48 hr
[32] = 12.5 mg/Kg intraperitoneally, 1 hr
[33] = 12.5 mg/Kg intraperitoneally, 3 hr
[34] = 12.5 mg/Kg intraperitoneally, 6 hr
[35] = 12.5 mg/Kg intraperitoneally, 24 hr
[36] = 12.5 mg/Kg intraperitoneally, 48 hr

O=c1[nH]nc(CO)c2ccccc12 [4-hydroxymethyl-1-phthalazone]
activity at 40 µg/mL [1, 9]: 86.2 ± 2.5%
activity at 40 µg/mL [1, 10]: 72 ± 6.8%
activity at 80 µg/mL [1, 11]: 82.4 ± 3.2%
activity at 80 µg/mL [1, 12]: 64.9 ± 6.7%
activity at 300 µg/mL ([1]; 300 μg/ml, intensity with compound vs saline, read-out: Inhibition ratio, primary aggregation, ADP 3 μM): 84.5 ± 2%
activity at 300 µg/mL ([1]; 300 μg/ml, intensity with compound vs saline, read-out: Inhibition ratio, secondary aggregation, ADP 3 μM): 68.3 ± 3.8%
activity at 40 µg/mL [1, 13]: 98.8 ± 5.9%
activity at 80 µg/mL [1, 13]: 92.3 ± 6%
activity at 300 µg/mL [1, 13]: 85.4 ± 3.1%
activity at 40 µg/mL [1, 14]: 85.9 ± 10.1%
activity at 80 µg/mL [1, 14]: 69.2 ± 7.2%
activity at 300 µg/mL [1, 14]: 60.2 ± 8%
Percent of surface covered by fatty streaks [2]: 36.8±5.2%
Blood Pressure [3, 15]: 178
Blood Pressure [3, 16]: 179
Blood Pressure [3, 17]: 180
Blood Pressure [3, 18]: 182
Blood Pressure [3, 19]: 184
Blood Pressure [3, 20]: 183
hypotensive effect (in words) [3]: did not exhibit a significant hypotensive effect
LD50 [4]: 4000 mg/kg

CCOC(=O)c1c(C)cc2c(CO)n[nH]c(=O)c2c1C [6,8-dimethyl-7-ethoxycarbonyl-4-hydroxymethyl-1-phthalazone]
activity at 2.5 µg/mL ([1]; 2.5 μg/ml, intensity with compound vs saline, read-out: Inhibition ratio, primary aggregation, ADP 3 μM): 91.7 ± 8.3%
activity at 2.5 µg/mL ([1]; 2.5 μg/ml, intensity with compound vs saline, read-out: Inhibition ratio, secondary aggregation, ADP 3 μM): 96 ± 8.7%
activity at 5 µg/mL [1, 21]: 93.3 ± 8.9%
activity at 5 µg/mL [1, 22]: 59.8 ± 11.3%
activity at 10 µg/mL [1, 23]: 90.6 ± 3.8%
activity at 10 µg/mL [1, 24]: 49.9 ± 6.9%
activity at 20 µg/mL [1, 25]: 93.1 ± 8.2%
activity at 20 µg/mL [1, 26]: 56.2 ± 6.3%
activity at 40 µg/mL [1, 9]: 68.5 ± 5.2%
activity at 40 µg/mL [1, 10]: 41.9 ± 2.2%
activity at 2.5 µg/mL [1, 13]: 88.5 ± 3.1%
activity at 5 µg/mL [1, 13]: 82.4 ± 3%
activity at 10 µg/mL [1, 13]: 89.1 ± 7.3%
activity at 20 µg/mL [1, 13]: 97.5 ± 7.5%
activity at 2.5 µg/mL [1, 14]: 52.8 ± 7.5%
activity at 5 µg/mL [1, 14]: 52.4 ± 7.3%
activity at 10 µg/mL [1, 14]: 57.1 ± 16%
activity at 20 µg/mL [1, 14]: 99.6 ± 13.2%
Percent of surface covered by fatty streaks [2]: 16.2±4.3%
Cholesterol content (aortic wall, total) ([5]; 6 weeks, placebo 32.1±3.6): 20.8±3.1 μg/mg dry weight
Cholesterol content (aortic wall, total) ([5]; 10 weeks, placebo 33.8±3.0): 9.7±4.2 μg/mg dry weight
Cholesterol content (aortic wall, total) ([5]; 20 weeks, placebo 29.5±5.4): 4.2±1.8 μg/mg dry weight
IC50 [6]: 4.1 µM
IC50 [7]: 1.6 µM
IC50 [8]: 24 µM
Blood Pressure [3, 27]: 170
Depression % (blood pressure) [3, 27]: 1.7%
Blood Pressure [3, 28]: 138
Depression % (blood pressure) [3, 28]: 20.2%
Blood Pressure [3, 29]: 110
Depression % (blood pressure) [3, 29]: 36.4%
Blood Pressure [3, 30]: 135
Depression % (blood pressure) [3, 30]: 22.0%
Blood Pressure [3, 31]: 150
Depression % (blood pressure) [3, 31]: 13.3%
Blood Pressure ([3]; 3.1 mg/Kg intraperitoneally, before dosing): 173
Blood Pressure [3, 32]: 173
Depression % (blood pressure) [3, 32]: 1.1%
Blood Pressure [3, 33]: 155
Depression % (blood pressure) [3, 33]: 11.4%
Blood Pressure [3, 34]: 120
Depression % (blood pressure) [3, 34]: 28.6%
Blood Pressure [3, 35]: 142
Depression % (blood pressure) [3, 35]: 18.9%
Blood Pressure [3, 36]: 155
Depression % (blood pressure) [3, 36]: 11.4%
Blood Pressure ([3]; 12.5 mg/Kg intraperitoneally, before dosing): 175
Blood Pressure [3, 15]: 165
Depression % (blood pressure) [3, 15]: 2.9%
Blood Pressure [3, 16]: 132
Depression % (blood pressure) [3, 16]: 22.4%
Blood Pressure [3, 17]: 110
Depression % (blood pressure) [3, 17]: 35.3%
Blood Pressure [3, 18]: 145
Depression % (blood pressure) [3, 18]: 14.7%
Blood Pressure [3, 19]: 152
Depression % (blood pressure) [3, 19]: 10.6%
Blood Pressure [3, 20]: 170

CCOC(=O)c1ccc2c(CO)n[nH]c(=O)c2c1 [7-ethoxycarbonyl-4-hydroxymethyl-1-phthalazone]
activity at 5 µg/mL [1, 21]: 90.5 ± 5.6%
activity at 5 µg/mL [1, 22]: 84.9 ± 6.3%
activity at 10 µg/mL [1, 23]: 81.9 ± 5.2%
activity at 10 µg/mL [1, 24]: 67.1 ± 6.3%
activity at 20 µg/mL [1, 25]: 77 ± 5.1%
activity at 20 µg/mL [1, 26]: 58.6 ± 7.6%
activity at 80 µg/mL [1, 11]: 62.9 ± 5%
activity at 80 µg/mL [1, 12]: 15.7 ± 0.4%
activity at 5 µg/mL [1, 13]: 106 ± 6.9%
activity at 10 µg/mL [1, 13]: 97 ± 4.1%
activity at 20 µg/mL [1, 13]: 92.9 ± 16.9%
activity at 5 µg/mL [1, 14]: 80.8 ± 13.9%
activity at 10 µg/mL [1, 14]: 82.1 ± 9.5%
activity at 20 µg/mL [1, 14]: 71.7 ± 13.5%
activity at 80 µg/mL [1, 14]: 33 ± 7.1%
Percent of surface covered by fatty streaks [2]: 28.8±3.6%
Cholesterol content (aortic wall, total) ([5]; 6 weeks, placebo 32.1±3.6): 24.6±3.0 μg/mg dry weight
Cholesterol content (aortic wall, total) ([5]; 10 weeks, placebo 33.8±3.0): 12.2±3.5 μg/mg dry weight
Cholesterol content (aortic wall, total) ([5]; 20 weeks, placebo 29.5±5.4): 6.4±2.7 μg/mg dry weight
IC50 [6]: 57 µM
IC50 [7]: 52 µM
IC50 [8]: 144 µM
Blood Pressure [3, 15]: 165
Blood Pressure [3, 16]: 176
Blood Pressure [3, 17]: 180
Blood Pressure [3, 18]: 179
Blood Pressure [3, 19]: 184
Blood Pressure [3, 20]: 178
hypotensive effect (in words) [3]: did not exhibit a significant hypotensive effect
LD50 [4]: 5000 mg/kg
